Data on eleven compounds can be found in patent US7125995B2, “Substituted amidoalkyl uracils and their use as inhibitors of the poly(adp-ribose) synthetase (PARS)” (Bayer Aktiengesellschaft, priority 2000, dated 2006).

The target of one experiment is T1, human PARS enzyme (Homo sapiens, UniProt P09874).
T1 construct: made in house; host or cells: baculovirus expression system (Bac-To-Bac, Life Technologies)
T1 sequence (P09874 whole entry): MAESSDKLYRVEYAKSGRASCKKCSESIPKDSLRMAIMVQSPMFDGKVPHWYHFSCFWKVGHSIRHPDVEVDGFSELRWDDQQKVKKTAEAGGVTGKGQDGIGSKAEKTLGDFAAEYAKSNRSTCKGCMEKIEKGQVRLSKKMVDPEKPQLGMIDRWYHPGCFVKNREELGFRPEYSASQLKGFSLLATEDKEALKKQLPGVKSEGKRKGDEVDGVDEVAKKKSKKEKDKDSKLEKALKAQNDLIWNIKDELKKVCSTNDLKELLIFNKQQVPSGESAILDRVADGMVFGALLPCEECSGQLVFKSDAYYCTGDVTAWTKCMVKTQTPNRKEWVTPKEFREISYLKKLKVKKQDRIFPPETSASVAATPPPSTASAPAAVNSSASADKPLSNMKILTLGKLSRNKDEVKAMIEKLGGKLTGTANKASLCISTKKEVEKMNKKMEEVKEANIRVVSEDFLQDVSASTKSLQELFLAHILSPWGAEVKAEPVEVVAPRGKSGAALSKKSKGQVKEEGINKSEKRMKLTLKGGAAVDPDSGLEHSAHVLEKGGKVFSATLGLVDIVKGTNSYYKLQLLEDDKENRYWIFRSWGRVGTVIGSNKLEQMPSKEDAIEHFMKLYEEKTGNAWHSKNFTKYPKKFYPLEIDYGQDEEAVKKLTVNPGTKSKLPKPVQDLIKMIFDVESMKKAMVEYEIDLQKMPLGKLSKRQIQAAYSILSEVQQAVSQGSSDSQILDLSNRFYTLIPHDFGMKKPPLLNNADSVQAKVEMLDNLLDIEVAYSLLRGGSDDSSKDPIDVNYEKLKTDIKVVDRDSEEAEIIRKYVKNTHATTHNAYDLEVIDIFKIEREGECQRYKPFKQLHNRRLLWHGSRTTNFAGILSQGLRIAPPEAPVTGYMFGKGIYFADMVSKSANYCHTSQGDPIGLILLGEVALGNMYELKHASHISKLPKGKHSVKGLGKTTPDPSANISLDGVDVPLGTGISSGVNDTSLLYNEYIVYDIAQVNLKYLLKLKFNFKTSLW
The experiment in a line: PARS inhibition test (in vitro). The format is biochemical. To be noted: recombinant human PARS, [14C]-NAD+, 10 min room temperature. As for the experimental part:
To this end, recombinantly expressed (Bac-To-Bac, Baculo virus expression system; Instruction Manual; Life Technologies) human PARS enzyme is activated in a buffer which contains radioactively labelled [^14C]—NAD^+. The poly(ADP-ribose) units that are synthesized are precipitated using trichloroacetic acid, and the proportion of labelled protein is determined by scintillation measurements. Incubation of PARS with inhibitors leads to a decrease in the proportion of labelled protein and thus to a reduced radioactivity.
• Buffer: 100 mM 2-amino-2-hydroxymethyl-1,3-propanediol (tris)-HCl, pH 7.4 • 10 mM MgCl2 • 1 mM dithiothreitol (DTT) • Tris-HCl and MgCl2 are dissolved in water, DTT is added from an aqueous 100 mM stock solution (stored at −20° C.) and the pH is adjusted with concentrated HCl to 7.4. • DNA: 1 mg/ml of calf thymus DNA • 1 mg/ml of calf thymus DNA (from Sigma) is dissolved in water and sonicated to induce strand breaks. 500 μl aliquots were stored at −20° C. • Histones: 10 mg/ml of type IIA histones, calf thymus • 10 mg/ml of lyophilized histones (from Sigma) are dissolved in water. • 500 μl aliquots are stored at −20° C. • NAD^+ Mix: 2 mM NAD^+ in buffer, • NAD^+ (from Sigma) solutions are prepared freshly before each test. • In each case 3 μl of labelled [^14C]—NAD^+ (2.8 kBq, from Amersham) are added to 7 μl of cold NAD^+ solution. • Trichloroacetic acid (TCA): TCA is stored at 4° C. as a 10% strength by weight solution. • PARS: Human PARS protein is expressed recombinantly in the baculovirus system (Bac-To-Bac, Baculo virus expression system; Instruction Manual; Life Technologies) and purified. 500 μl aliquots are stored at −80° C. Methods
The compounds to be tested are dissolved in DMSO (dimethyl sulphoxide) at a concentration of 10 mM. The assay is carried out in deep 96-well plates. […] The mixture is incubated at room temperature for 10 min, and 1 ml of ice-cold TCA solution is then added, and the precipitated labelled proteins are sucked onto a filter paper (printed filter mat A; from Wallac) using a harvester (from Scatron). The filter is dried, sealed together with a scintillation sheet (Multilex A; from Wallac) and measured in a β counter for 1 min per well.
In addition to the substances described in this application, the known PARS inhibitor 1,5-dihydroxyisoquinoline (DHCH) is tested as reference substance. The results of the test are stated as IC50 values for the inhibition of PARS.
In general, IC50 refers to the concentration needed to halve the response being measured. On to `O=C(CCn1c2c(c(=O)[nH]c1=O)CCCC2)NCC(=O)c1ccc(-c2ccncc2)cc1` [Example 7], for which the IC50 was determined as 12 nM. The same measure, in the same setting: with `Cc1csc2c(N3CCN(C(=O)CNC(=O)CCn4c5c(c(=O)[nH]c4=O)CSCC5)CC3)ncnc12` [Example 15] the figure was 15 nM. On the same count and under the same terms, with `O=C(CCn1c2c(c(=O)[nH]c1=O)CCCC2)NCC(=O)N1CCN(c2ccccc2C(F)(F)F)CC1` [Example 54] the figure was 80 nM. Same read-out and setting: with `O=C(CCn1c2c(c(=O)[nH]c1=O)CSCC2)NCC(=O)c1ccc2ccccc2c1` [Example 6] the figure was 8.5 nM.

For a further experiment, the system named is MHEC5-T cells. The experiment is described as follows: Cell protection assay (in vitro), H2O2-induced cell death, Alamar blue. The format is cell-based. To be noted: 3 mM H2O2, 5 hours, 37° C., 50% of maximum cell protection, 10 μM DHCH defined as 100%, read-out: Cell protection (in vitro) EC50. As for the experimental part:
In accordance with a method described by Bowes [Bowes et al., Br. J. Pharmacol., 124, 1760–1766 (1998)], the ability of PARS inhibitors to protect cells against cell death induced by incubation with H2O2 is examined in a cell protection assay. Incubation of endothelial cells with H2O2 results in the generation of DNA strand breaks which in turn activate PARS, resulting in a drastic energy decrease in the cells and in cell death. Living cells are quantified by a fluorimetric redox indicator (Alamar blue), which is converted in the electron transport system of the mitochondria.
Specifically, 7500 MHEC5-T cells/well (DSM ACC 336; German collection of microorganisms and cell cultures) are sown in 4 replications on a 96-well plate. After 24 hours, the cells are incubated with 3 mM aqueous H2O2 solution and differing concentrations of the substances in the presence of 6% by volume of Alamar blue solution in the medium at 37° C. for 5 hours. The reference substance used is 10 μM 1,5-dihydroxyisoquinoline (DHCH) solution. After the incubation, the fluorescence is measured at an excitation wavelength of 530–560 nm and an emission wavelength of 590 nm. The percentage for the cell protection is calculated as the difference between the living cells treated only with H2O2 and the cells treated with H2O2 and PARS inhibitors. The internal standard used is 10 μM DHCH, which is defined as 100% protection. The results obtained for the other substances are compared to this value.
The EC50 values indicate the concentration at which 50% of maximum cell protection is reached, maximum protection by 10 μM DHCH being defined as 100%.
For orientation: Resazurin is reduced to fluorescent resorufin, in cell work by metabolically active cells.
What is called EC50 is the concentration giving half of the maximal effect. For the compound `O=C(CCn1c2c(c(=O)[nH]c1=O)CSCC2)NCC(=O)c1ccc(-c2cnccn2)cc1` [Example 5, 3-(2,4-Dioxo-3,4,7,8-tetrahydro-2H-thiopyrano [4,3-d]pyrimidin-1(5H)-yl)-N-(2-oxo-2-[4-(2-pyrazinyl)phenyl]ethyl)propanecarboxamide], the EC50 stood at 70 nM. For the compound `O=C(CCn1c2c(c(=O)[nH]c1=O)CSCC2)NCC(=O)N1CCN(c2ccccc2)CC1` [Example 30], the EC50 stood at 100 nM. With `O=C(CCn1c2c(c(=O)[nH]c1=O)CSCC2)NCC(=O)N1CCN(c2ncc(Br)cn2)CC1` [Example 24], the concentration for a half-maximal effect (EC50) amounted to 20 nM. Same read-out and setting: with `O=C(CCn1c2c(c(=O)[nH]c1=O)CCCC2)NCC(=O)c1ccc(-c2ccncc2)cc1` [Example 7] the figure was 90 nM; with `Cc1csc2c(N3CCN(C(=O)CNC(=O)CCn4c5c(c(=O)[nH]c4=O)CSCC5)CC3)ncnc12` [Example 15], 50 nM. Turning to `O=C(CCn1c2c(c(=O)[nH]c1=O)CCCC2)NCC(=O)N1CCN(c2ncc(F)cn2)CC1` [Example 40], the EC50 came out at 90 nM. The same measure, in the same setting: with `O=C(CCn1c2c(c(=O)[nH]c1=O)CSCC2)NCC(=O)c1ccc(-c2ccc3c(c2)OCO3)cc1` [Example 12] the figure was 95 nM; with `O=C(CCn1c2c(c(=O)[nH]c1=O)CCCC2)NCC(=O)N1CCN(c2ccc([N+](=O)[O-])cc2)CC1` [Example 32], 200 nM.

Still in this experiment, the particulars now being: 3 mM H2O2, 5 hours, reference substance, read-out: Cell protection EC50 value.
`Oc1cccc2c(O)nccc12` [DHCH, 1,5-dihydroxyisoquinoline, reference compound]: the EC50 came to 2000 nM.
